Experimental data taken from ChEMBL document CHEMBL1129048, “A novel, picomolar inhibitor of human immunodeficiency virus type 1 protease” (J Med Chem, 1996).

How the values were obtained:
MT4 = test: In vitro effective concentration against MT-4 cell line; assay type: functional, cell-based; conditions: Homo sapiens
[1] = target: Human immunodeficiency virus type 1 protease (Human immunodeficiency virus 1, UniProt Q72874); test: Inhibitory activity against HIV-1 Protease

SMILES | EC50 (MT4) [nM] | Ki [1] [nM]
O=C1N(Cc2ccccc2)[C@H](Cc2ccccc2)[C@H](O)CN(Cc2ccccc2)N1Cc1ccccc1 | 2860 | 2
O=C1N(Cc2ccc(O)cc2)[C@H](Cc2ccccc2)[C@H](O)CN(Cc2ccccc2)N1Cc1ccc(O)cc1 | 10 | 0.07
COc1cc(CN2C(=O)N(CC3CC3)N(Cc3ccccc3)C[C@@H](O)[C@H]2Cc2ccccc2)ccc1O | 170 | 0.062
COc1cccc(CN2C(=O)N(Cc3cccc(OC)c3)N(Cc3ccccc3)C[C@@H](O)[C@H]2Cc2ccccc2)c1 | 930 | 0.22
COc1cc(CN2C(=O)N(Cc3ccc(O)c(OC)c3)N(Cc3ccccc3)C[C@@H](O)[C@H]2Cc2ccccc2)ccc1O | 2 | –
O=C1N(Cc2ccc(CO)cc2)[C@H](Cc2ccccc2)[C@H](O)CN(Cc2ccccc2)N1Cc1ccc(CO)cc1 | 90 | 0.22
O=C1N(Cc2ccc(CO)cc2)[C@H](Cc2ccccc2)[C@H](O)[C@@H](O)[C@@H](Cc2ccccc2)N1Cc1ccc(CO)cc1 [DMP-323] | 30 | 0.23
O=C1N(Cc2ccc(CO)cc2)[C@H](Cc2ccccc2)[C@H](O)CN(Cc2ccoc2)N1Cc1ccc(CO)cc1 | 100 | 0.49
